One block for each compound: values may come before it.
Columns and labels:
Rattus norvegicus = experiment: Compound was tested in vivo for its ability to inhibit pentagastrin-stimulated gastric acid secretion in the anesthetized lumen perfused rat at 10 umol/kg iv; insoluble; type: functional, organism-based; settings: Stomach
[1] = biological target: Potassium-transporting ATPase alpha chain 1 (Sus scrofa) (UniProt P19156); experiment: Ability to inhibit H+/K+ stimulated ATPase activity in lympholised gastric vesicles at 100 uM concentration; type: tissue-based; settings: Stomach
Potassium-transporting ATPase alpha chain 1 (Sus scrofa), sequence (P19156 whole entry): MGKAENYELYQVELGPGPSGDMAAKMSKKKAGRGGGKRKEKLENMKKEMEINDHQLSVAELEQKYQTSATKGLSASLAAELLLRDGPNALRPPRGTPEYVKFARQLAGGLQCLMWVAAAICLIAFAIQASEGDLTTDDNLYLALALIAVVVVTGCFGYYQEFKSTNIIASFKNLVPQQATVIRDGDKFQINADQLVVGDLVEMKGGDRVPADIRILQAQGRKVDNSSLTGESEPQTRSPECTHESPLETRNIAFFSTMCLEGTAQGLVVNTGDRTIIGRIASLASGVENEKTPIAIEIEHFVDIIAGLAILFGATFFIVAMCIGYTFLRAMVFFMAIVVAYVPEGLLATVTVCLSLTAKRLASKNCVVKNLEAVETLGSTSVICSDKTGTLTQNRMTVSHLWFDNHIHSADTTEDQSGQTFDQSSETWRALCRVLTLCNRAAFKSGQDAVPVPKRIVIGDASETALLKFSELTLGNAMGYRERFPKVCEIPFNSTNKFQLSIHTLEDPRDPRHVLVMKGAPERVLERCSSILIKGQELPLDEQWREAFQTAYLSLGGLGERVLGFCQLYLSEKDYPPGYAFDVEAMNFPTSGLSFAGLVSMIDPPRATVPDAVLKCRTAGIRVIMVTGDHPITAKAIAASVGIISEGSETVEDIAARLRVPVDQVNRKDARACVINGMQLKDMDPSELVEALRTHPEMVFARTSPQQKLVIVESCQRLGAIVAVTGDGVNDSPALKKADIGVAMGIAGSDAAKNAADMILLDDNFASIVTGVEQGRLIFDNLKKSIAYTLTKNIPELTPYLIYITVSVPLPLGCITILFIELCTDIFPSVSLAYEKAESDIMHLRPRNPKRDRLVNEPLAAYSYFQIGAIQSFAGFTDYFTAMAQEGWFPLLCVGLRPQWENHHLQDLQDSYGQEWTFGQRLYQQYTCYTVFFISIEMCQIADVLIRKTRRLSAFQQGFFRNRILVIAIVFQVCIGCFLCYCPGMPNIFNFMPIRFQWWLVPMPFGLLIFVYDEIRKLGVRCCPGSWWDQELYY

[2] = biological target: Potassium-transporting ATPase alpha chain 1 (Sus scrofa) (UniProt P19156); experiment: Ability to inhibit H+/K+ stimulated ATPase activity in lympholised gastric vesicles at 30 uM concentration; type: tissue-based; settings: Stomach
[3] = system: CCCc1nc(-c2cc(N)ccn2)c(-c2ccccc2C)s1; experiment: Vmax was determined
[4] = system: CCCc1nc(-c2cc(N)ccn2)c(-c2ccccc2C)s1; experiment: Km was determined

Potassium-transporting ATPase alpha chain 1 (Sus scrofa), P19156, sequence (P19156 whole entry): as above

Compound: Cc1ccccc1-c1nc(-c2ccccn2)c(-c2ccccc2C)s1
inhibition (Rattus norvegicus): Insoluble

inhibition [1]: 67%
Compound: CCCc1nc(-c2ccccc2C)c(-c2ccccn2)[nH]1

inhibition [2]: 23%
Compound: CCCc1ncc(-c2ccccc2C)c(-c2ccccn2)n1

Compound: Potassium-transporting ATPase alpha chain 1 (Sus scrofa), P19156
Vmax [3]: 0.636 IU mg-1
Km [4]: 560 µM

inhibition [1]: 48%
Compound: Cc1nc(-c2ccccn2)c(-c2ccccc2C)s1

Reference: ChEMBL document CHEMBL1159147, “4-(2-PYRTOYL)-5-phenylthiazoles as novel non-bicyclic reversible inhibitors of the gastric H+/K+-atpase” (Bioorg Med Chem Lett, 1995)
